Reference: US20240270695A1, “COMPOUNDS, COMPOSITIONS AND METHODS OF TREATING DISORDERS” (Chengdu Anticancer Bioscience LTD, priority 2021, published 2024)
Where two headings read alike, the source gives them in different places.

System: RPE-Neo or RPE-MYC or RPE-MYC expressing an EGFP-Histone 2B fusion protein
Experiment: Phenotypic screening assay (arrest in mitosis, change in DNA content, cell death; GE IN-Cell Analyzer 2000)
Assay type: cell-based
Settings: Homo sapiens, compounds 20 nM to 20 μM, 24, 48 or 72 hours
[1] = read-out: Min. Effective conc. for Polyploidy (≥10%)
[2] = min. effective conc., read-out: Cell Death (>30%)
[3] = min. effective conc., read-out: Mitotic Arrest (≥10%)

SMILES	minimal effective concentration [1] [µM]	minimal effective concentration [2] [µM]	minimal effective concentration [3] [µM]
COC(=O)C1=C(O)c2ccccc2N(Cc2ccc(C(F)(F)F)cc2)C(=O)C1 [Example 40, Methyl 5-hydroxy-2-oxo-1-(4-(trifluoromethyl)benzyl)-2,3-dihydro-1H-benzo[b]azepine-4-carboxylate]	1 to 10	1 to 10	1 to 10
COC(=O)C1=C(O)c2ccccc2N(Cc2ccc(C)c(F)c2)C(=O)C1 [Example 41, Methyl 1-(3-fluoro-4-methylbenzyl)-5-hydroxy-2-oxo-2,3-dihydro-1H-benzo[b]azepine-4-carboxylate]	0.001 to 1	0.001 to 1	0.001 to 1
COC(=O)C1=C(O)c2ccccc2N(Cc2ccc(C)c(Cl)c2)C(=O)C1 [Example 45, Methyl 1-(3-chloro-4-methylbenzyl)-5-hydroxy-2-oxo-2,3-dihydro-1H-benzo[b]azepine-4-carboxylate]	1 to 10	1 to 10	1 to 10
COC(=O)C1=C(O)c2ccccc2N(Cc2ccc(C)c(Br)c2)C(=O)C1 [Example 46, Methyl 1-(3-bromo-4-methylbenzyl)-5-hydroxy-2-oxo-2,3-dihydro-1H-benzo[b]azepine-4-carboxylate]	1 to 10	1 to 10	1 to 10
COC(=O)C1=C(O)c2ccccc2N(Cc2ccc(OC)c(F)c2)C(=O)C1 [Example 48, Methyl 1-(3-fluoro-4-methoxybenzyl)-5-hydroxy-2-oxo-2,3-dihydro-1H-benzo[b]azepine-4-carboxylate]	0.001 to 1	0.001 to 1	0.001 to 1
CCCc1ccc(CN2C(=O)CC(C(=O)OC)=C(O)c3ccccc32)cc1 [Example 49, Methyl 5-hydroxy-2-oxo-1-(4-propylbenzyl)-2,3-dihydro-1H-benzo[b]azepine-4-carboxylate]	10 to 30	10 to 30	10 to 30
CCCCc1ccc(CN2C(=O)CC(C(=O)OC)=C(O)c3ccccc32)cc1 [Example 50, Methyl 1-(4-butylbenzyl)-5-hydroxy-2-oxo-2,3-dihydro-1H-benzo[b]azepine-4-carboxylate]	10 to 30	10 to 30	10 to 30
COC(=O)C1=C(O)c2ccccc2N(Cc2ccc(OC)c(OC)c2)C(=O)C1 [Example 51, Methyl 1-(3,4-dimethoxybenzyl)-5-hydroxy-2-oxo-2,3-dihydro-1H-benzo[b]azepine-4-carboxylate]	30 to 1000	30 to 1000	30 to 1000
COC(=O)C1=C(O)c2cc(F)ccc2N(Cc2ccc(C)c(F)c2)C(=O)C1 [Example 52, Methyl 7-fluoro-1-(3-fluoro-4-methylbenzyl)-5-hydroxy-2-oxo-2,3-dihydro-1H-benzo[b]azepine-4-carboxylate]	0.001 to 1	0.001 to 1	0.001 to 1
COC(=O)C1=C(O)c2cnccc2N(Cc2ccc(C)c(F)c2)C(=O)C1 [Example 53, Methyl 1-(3-fluoro-4-methylbenzyl)-5-hydroxy-2-oxo-2,3-dihydro-1H-pyrido[4,3-b] azepine-4-carboxylate]	1 to 10	1 to 10	1 to 10
COC(=O)C1=C(O)c2cc(OC)c(OC)cc2N(Cc2ccc(C)c(F)c2)C(=O)C1 [Example 54, Methyl 1-(3-fluoro-4-methylbenzyl)-5-hydroxy-7,8-dimethoxy-2-oxo-2,3-dihydro-1H-benzo[b]azepine-4-carboxylate]	0.001 to 1	0.001 to 1	0.001 to 1
CCC(=O)C1=C(O)c2ccccc2N(Cc2ccc(C)c(F)c2)C(=O)C1 [Example 55, 1-(3-fluoro-4-methylbenzyl)-5-hydroxy-4-propionyl-1,3-dihydro-2H-benzo[b]azepin-2-one]	0.001 to 1		0.001 to 1
CC(=O)C1=C(O)c2ccccc2N(Cc2ccc(C)c(F)c2)C(=O)C1 [Example 56, 4-acetyl-1-(3-fluoro-4-methylbenzyl)-5-hydroxy-1,3-dihydro-2H-benzo[b]azepin-2-one]	1 to 10		1 to 10
CCCC(=O)C1=C(O)c2ccccc2N(Cc2ccc(C)c(F)c2)C(=O)C1 [Example 57, 4-butyryl-1-(3-fluoro-4-methylbenzyl)-5-hydroxy-1,3-dihydro-2H-benzo[b]azepin-2-one]	1 to 10	1 to 10	0.001 to 1
Cc1ccc(CN2C(=O)CC(C(=O)C3CC3)=C(O)c3ccccc32)cc1F [Example 58, 4-(cyclopropanecarbonyl)-1-(3-fluoro-4-methylbenzyl)-5-hydroxy-1,3-dihydro-2H-benzo[b]azepin-2-one]	0.001 to 1	0.001 to 1	0.001 to 1
Cc1ccc(CN2C(=O)CC(C(=O)C(C)C)=C(O)c3ccccc32)cc1F [Example 59, 1-(3-fluoro-4-methylbenzyl)-5-hydroxy-4-isobutyryl-1,3-dihydro-2H-benzo[b]azepin-2-one]	0.001 to 1	0.001 to 1	0.001 to 1
Cc1ccc(CN2C(=O)CC(C(=O)C(C)(C)C)=C(O)c3ccccc32)cc1F [Example 60, 1-(3-fluoro-4-methylbenzyl)-5-hydroxy-4-pivaloyl-1,3-dihydro-2H-benzo[b]azepin-2-one]	1 to 10	1 to 10	1 to 10
Cc1ccc(CN2C(=O)CC(C(=O)C3CCCO3)=C(O)c3ccccc32)cc1F (stereo not shown) [Example 62, 1-(3-fluoro-4-methylbenzyl)-5-hydroxy-4-(tetrahydrofuran-2-carbonyl)-1,3-dihydro-2H-benzo[b]azepin-2-one]	1 to 10	1 to 10	1 to 10
CNC(=O)C1=C(O)c2ccccc2N(Cc2ccc(C)c(F)c2)C(=O)C1 [Example 63, 1-(3-fluoro-4-methylbenzyl)-5-hydroxy-N-methyl-2-oxo-2,3-dihydro-1H-benzo[b]azepine-4-carboxamide]	1 to 10	1 to 10	1 to 10
CCNC(=O)C1=C(O)c2ccccc2N(Cc2ccc(C)c(F)c2)C(=O)C1 [Example 64, N-ethyl-1-(3-fluoro-4-methylbenzyl)-5-hydroxy-2-oxo-2,3-dihydro-1H-benzo[b]azepine-4-carboxamide]	1 to 10	1 to 10	1 to 10
Cc1ccc(CN2C(=O)CC(C(=O)NC(C)C)=C(O)c3ccccc32)cc1F [Example 65, 1-(3-fluoro-4-methylbenzyl)-5-hydroxy-N-isopropyl-2-oxo-2,3-dihydro-1H-benzo[b]azepine-4-carboxamide]	1 to 10	1 to 10	1 to 10
